In ChEMBL document CHEMBL1201862, “PubChem BioAssay data set” (2004):
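Compound exposure: 48 hours, 5 concentrations, 96-well plates. At the GI50, growth is halved.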 Activity calls are given as the source filed them. Cut-off read from the data, not from the text of the source: active = GI50 up to about 1.1 µM and inactive = higher.

Key:
Experiment in all cases: DTP human tumour cell line panel, 48 h
786-0 = system: 786-0
A498 = system: A498
A549 = system: A549
ACHN = system: ACHN
CAKI-1 = system: CAKI-1
CCRF-CEM = system: CCRF-CEM
COLO 205 = system: COLO 205
DU-145 = system: DU-145
EKVX = system: EKVX
HCC 2998 = system: HCC 2998
HCT-116 = system: HCT-116
HCT-15 = system: HCT-15
HL-60 = system: HL-60
HOP-62 = system: HOP-62
HOP-92 = system: HOP-92
HT-29 = system: HT-29
Hs-578T = system: Hs-578T
IGROV-1 = system: IGROV-1
K562 = system: K562
KM12 = system: KM12
LOX IMVI = system: LOX IMVI
MDA-MB-231 = system: MDA-MB-231
MDA-MB-435 = system: MDA-MB-435
MDA-N = system: MDA-N
MOLT-4 = system: MOLT-4
Malme-3M = system: Malme-3M
NCI-H226 = system: NCI-H226
NCI-H23 = system: NCI-H23
NCI-H460 = system: NCI-H460
NCI-H522 = system: NCI-H522
NCI/ADR-RES = system: NCI/ADR-RES
OVCAR-4 = system: OVCAR-4
OVCAR-5 = system: OVCAR-5
OVCAR-8 = system: OVCAR-8
PC-3 = system: PC-3
RPMI-8226 = system: RPMI-8226
RXF 393 = system: RXF 393
SF-268 = system: SF-268
SF-295 = system: SF-295
SF-539 = system: SF-539
SK-MEL-28 = system: SK-MEL-28
SK-MEL-2 = system: SK-MEL-2
SK-MEL-5 = system: SK-MEL-5
SK-OV-3 = system: SK-OV-3
SN12C = system: SN12C
SNB-19 = system: SNB-19
SNB-75 = system: SNB-75
SR = system: SR
SW-620 = system: SW-620
T47D = system: T47D
TK-10 = system: TK-10
U-251 = system: U-251
UACC-257 = system: UACC-257
UACC-62 = system: UACC-62
UO-31 = system: UO-31
M14 = system: M14
MCF7 = system: MCF7
OVCAR-3 = system: OVCAR-3
BT-549 = system: BT-549

Cc1ccc(/N=c2/oc3c(ccc4ccccc43)nc2Nc2ccc(C)cc2)cc1
GI50 (786-0): > 100 µM (inactive)
GI50 (A498): > 100 µM (inactive)
GI50 (A549): > 100 µM (inactive)
GI50 (ACHN): 80.4 µM (inactive)
GI50 (CAKI-1): > 100 µM (inactive)
GI50 (CCRF-CEM): > 100 µM (inactive)
GI50 (COLO 205): > 100 µM (inactive)
GI50 (DU-145): > 100 µM (inactive)
GI50 (EKVX): > 100 µM (inactive)
GI50 (HCC 2998): > 100 µM (inactive)
GI50 (HCT-116): > 100 µM (inactive)
GI50 (HCT-15): > 100 µM
GI50 (HL-60): > 100 µM (inactive)
GI50 (HOP-62): > 100 µM (inactive)
GI50 (HOP-92): > 100 µM (inactive)
GI50 (HT-29): > 100 µM (inactive)
GI50 (Hs-578T): > 100 µM (inactive)
GI50 (IGROV-1): > 100 µM (inactive)
GI50 (K562): > 100 µM (inactive)
GI50 (KM12): > 100 µM (inactive)
GI50 (LOX IMVI): > 100 µM (inactive)
GI50 (MDA-MB-231): > 100 µM (inactive)
GI50 (MDA-MB-435): > 100 µM (inactive)
GI50 (MDA-N): > 100 µM (inactive)
GI50 (MOLT-4): > 100 µM (inactive)
GI50 (Malme-3M): > 100 µM (inactive)
GI50 (NCI-H226): > 100 µM (inactive)
GI50 (NCI-H23): > 100 µM (inactive)
GI50 (NCI-H460): > 100 µM (inactive)
GI50 (NCI-H522): > 100 µM (inactive)
GI50 (NCI/ADR-RES): > 100 µM (inactive)
GI50 (OVCAR-4): > 100 µM (inactive)
GI50 (OVCAR-5): > 100 µM (inactive)
GI50 (OVCAR-8): > 100 µM (inactive)
GI50 (PC-3): > 100 µM (inactive)
GI50 (RPMI-8226): > 100 µM (inactive)
GI50 (RXF 393): > 100 µM (inactive)
GI50 (SF-268): > 100 µM (inactive)
GI50 (SF-295): > 100 µM (inactive)
GI50 (SF-539): > 100 µM (inactive)
GI50 (SK-MEL-28): > 100 µM (inactive)
GI50 (SK-MEL-2): > 100 µM (inactive)
GI50 (SK-MEL-5): > 100 µM (inactive)
GI50 (SK-OV-3): > 100 µM (inactive)
GI50 (SN12C): > 100 µM (inactive)
GI50 (SNB-19): > 100 µM (inactive)
GI50 (SNB-75): > 100 µM (inactive)
GI50 (SR): 69.8 µM (inactive)
GI50 (SW-620): > 100 µM (inactive)
GI50 (T47D): > 100 µM (inactive)
GI50 (TK-10): > 100 µM (inactive)
GI50 (U-251): > 100 µM (inactive)
GI50 (UACC-257): > 100 µM (inactive)
GI50 (UACC-62): > 100 µM (inactive)
GI50 (UO-31): > 100 µM (inactive)

CC(=O)c1ccc(/N=N/c2ccc3nonc3c2N)cc1
GI50 (786-0): > 100 µM (inactive)
GI50 (A549): > 100 µM (inactive)
GI50 (ACHN): > 100 µM (inactive)
GI50 (CAKI-1): > 100 µM (inactive)
GI50 (CCRF-CEM): > 100 µM (inactive)
GI50 (COLO 205): > 100 µM (inactive)
GI50 (DU-145): > 100 µM (inactive)
GI50 (EKVX): 9.98 µM (inactive)
GI50 (HCC 2998): > 100 µM (inactive)
GI50 (HCT-116): > 100 µM (inactive)
GI50 (HCT-15): > 100 µM
GI50 (HL-60): > 100 µM (inactive)
GI50 (HOP-62): > 100 µM (inactive)
GI50 (HOP-92): > 100 µM (inactive)
GI50 (HT-29): > 100 µM (inactive)
GI50 (Hs-578T): > 100 µM (inactive)
GI50 (IGROV-1): > 100 µM (inactive)
GI50 (K562): > 100 µM (inactive)
GI50 (KM12): > 100 µM (inactive)
GI50 (LOX IMVI): > 100 µM (inactive)
GI50 (M14): 52.8 µM (inactive)
GI50 (MCF7): > 100 µM (inactive)
GI50 (MDA-MB-231): > 100 µM (inactive)
GI50 (MDA-MB-435): > 100 µM (inactive)
GI50 (MDA-N): > 100 µM (inactive)
GI50 (MOLT-4): > 100 µM (inactive)
GI50 (Malme-3M): > 100 µM (inactive)
GI50 (NCI-H226): > 100 µM (inactive)
GI50 (NCI-H23): 26.9 µM (inactive)
GI50 (NCI-H460): > 100 µM (inactive)
GI50 (NCI/ADR-RES): > 100 µM (inactive)
GI50 (OVCAR-3): 88.3 µM (inactive)
GI50 (OVCAR-4): > 100 µM (inactive)
GI50 (OVCAR-5): > 100 µM (inactive)
GI50 (OVCAR-8): > 100 µM (inactive)
GI50 (PC-3): > 100 µM (inactive)
GI50 (RPMI-8226): > 100 µM (inactive)
GI50 (RXF 393): > 100 µM (inactive)
GI50 (SF-268): > 100 µM (inactive)
GI50 (SF-295): 83.4 µM (inactive)
GI50 (SF-539): > 100 µM (inactive)
GI50 (SK-MEL-28): > 100 µM (inactive)
GI50 (SK-MEL-2): > 100 µM (inactive)
GI50 (SK-MEL-5): > 100 µM (inactive)
GI50 (SK-OV-3): > 100 µM (inactive)
GI50 (SN12C): > 100 µM (inactive)
GI50 (SNB-19): > 100 µM (inactive)
GI50 (SNB-75): 94.4 µM (inactive)
GI50 (SR): > 100 µM (inactive)
GI50 (SW-620): > 100 µM (inactive)
GI50 (T47D): > 100 µM (inactive)
GI50 (TK-10): 53.1 µM (inactive)
GI50 (U-251): > 100 µM (inactive)
GI50 (UACC-257): > 100 µM (inactive)
GI50 (UACC-62): > 100 µM (inactive)
GI50 (UO-31): > 100 µM (inactive)

Cc1cc2[nH]c3c(C#N)c(-c4ccccc4)c(/N=N/c4ccc(F)cc4)c(=O)n3c2cc1C
GI50 (786-0): 31 µM (inactive)
GI50 (A498): > 100 µM (inactive)
GI50 (A549): 68.1 µM (inactive)
GI50 (ACHN): > 100 µM (inactive)
GI50 (BT-549): > 100 µM (inactive)
GI50 (CAKI-1): > 100 µM (inactive)
GI50 (CCRF-CEM): > 100 µM (inactive)
GI50 (COLO 205): > 100 µM (inactive)
GI50 (EKVX): > 100 µM (inactive)
GI50 (HCC 2998): > 100 µM (inactive)
GI50 (HCT-116): 25.6 µM (inactive)
GI50 (HCT-15): 36.6 µM
GI50 (HOP-62): > 100 µM (inactive)
GI50 (LOX IMVI): > 100 µM (inactive)
GI50 (M14): > 100 µM (inactive)
GI50 (MCF7): > 100 µM (inactive)
GI50 (MDA-MB-231): > 100 µM (inactive)
GI50 (MDA-MB-435): > 100 µM (inactive)
GI50 (MDA-N): > 100 µM (inactive)
GI50 (NCI-H226): > 100 µM (inactive)
GI50 (NCI-H23): > 100 µM (inactive)
GI50 (NCI-H460): 83.9 µM (inactive)
GI50 (NCI-H522): 18.5 µM (inactive)
GI50 (NCI/ADR-RES): > 100 µM (inactive)
GI50 (OVCAR-3): 3.21 µM (inactive)
GI50 (OVCAR-4): 91 µM (inactive)
GI50 (OVCAR-5): > 100 µM (inactive)
GI50 (PC-3): > 100 µM (inactive)
GI50 (RPMI-8226): > 100 µM (inactive)
GI50 (RXF 393): > 100 µM (inactive)
GI50 (SF-268): 35.9 µM (inactive)
GI50 (SF-295): > 100 µM (inactive)
GI50 (SF-539): > 100 µM (inactive)
GI50 (SK-MEL-28): > 100 µM (inactive)
GI50 (SK-MEL-2): > 100 µM (inactive)
GI50 (SK-MEL-5): 9.55 µM (inactive)
GI50 (SK-OV-3): > 100 µM (inactive)
GI50 (SN12C): > 100 µM (inactive)
GI50 (SNB-19): > 100 µM (inactive)
GI50 (SNB-75): 36.2 µM (inactive)
GI50 (SW-620): > 100 µM (inactive)
GI50 (T47D): 4.22 µM (inactive)
GI50 (TK-10): > 100 µM (inactive)
GI50 (U-251): 42.5 µM (inactive)
GI50 (UACC-257): > 100 µM (inactive)
GI50 (UO-31): > 100 µM (inactive)
